# Columns and labels:
# [1] = Growth inhibition of human SW620 cells at 10 uM after 48 hrs by SRB assay relative to control; assay type: functional; conditions: SW-620, 48 h, read-out: GI
# [2] = Growth inhibition of human SNB75 cells at 10 uM after 48 hrs by SRB assay relative to control; assay type: functional; conditions: SNB-75, 48 h, read-out: GI
# [3] = Growth inhibition of human RXF393 cells at 10 uM after 48 hrs by SRB assay relative to control; assay type: functional; conditions: RXF 393, 48 h, read-out: GI
# [4] = Growth inhibition of human RPMI8226 cells at 10 uM after 48 hrs by SRB assay relative to control; assay type: functional; conditions: RPMI-8226, 48 h, read-out: GI
# [5] = Growth inhibition of human HCT116 cells at 10 uM after 48 hrs by SRB assay relative to control; assay type: functional; conditions: HCT-116, 48 h, read-out: GI
# [6] = Growth inhibition of human NCI-ADR-RES cells at 10 uM after 48 hrs by SRB assay relative to control; assay type: functional; conditions: read-out: GI
# [7] = Growth inhibition of human IGROV1 cells at 10 uM after 48 hrs by SRB assay relative to control; assay type: functional; conditions: IGROV-1, 48 h, read-out: GI
# [8] = Growth inhibition of human OVCAR4 cells at 10 uM after 48 hrs by SRB assay relative to control; assay type: functional; conditions: OVCAR-4, 48 h, read-out: GI
# [9] = Growth inhibition of human Hs 578T cells at 10 uM after 48 hrs by SRB assay relative to control; assay type: functional; conditions: read-out: GI
# [10] = Growth inhibition of human HL-60(TB) cells at 10 uM after 48 hrs by SRB assay relative to control; assay type: functional; conditions: HL-60, 48 h, read-out: GI
# KM12 = assay: Growth inhibition of human KM12 cells at 10 uM after 48 hrs by SRB assay relative to control; assay type: functional; conditions: KM12, 48 h, read-out: GI
# [11] = Growth inhibition of human Caki1 cells at 10 uM after 48 hrs by SRB assay relative to control; assay type: functional; conditions: CAKI-1, 48 h, read-out: GI
# [12] = Growth inhibition of human HCC2998 cells at 10 uM after 48 hrs by SRB assay relative to control; assay type: functional; conditions: HCC 2998, 48 h, read-out: GI
# SK-MEL-2 = assay: Growth inhibition of human SK-MEL-2 cells at 10 uM after 48 hrs by SRB assay relative to control; assay type: functional; conditions: SK-MEL-2, 48 h, read-out: GI
# [13] = Growth inhibition of human UACC62 cells at 10 uM after 48 hrs by SRB assay relative to control; assay type: functional; conditions: UACC-62, 48 h, read-out: GI
# [14] = Growth inhibition of human MOLT4 cells at 10 uM after 48 hrs by SRB assay relative to control; assay type: functional; conditions: MOLT-4, 48 h, read-out: GI
# [15] = Growth inhibition of human BT549 cells at 10 uM after 48 hrs by SRB assay relative to control; assay type: functional; conditions: BT-549, 48 h, read-out: GI
# [16] = Growth inhibition of human SNB19 cells at 10 uM after 48 hrs by SRB assay relative to control; assay type: functional; conditions: SNB-19, 48 h, read-out: GI
# [17] = Growth inhibition of human DU145 cells at 10 uM after 48 hrs by SRB assay relative to control; assay type: functional; conditions: DU-145, 48 h, read-out: GI
# U-251 = assay: Growth inhibition of human U251 cells at 10 uM after 48 hrs by SRB assay relative to control; assay type: functional; conditions: U-251, 48 h, read-out: GI
# MCF7 = assay: Growth inhibition of human MCF7 cells at 10 uM after 48 hrs by SRB assay relative to control; assay type: functional; conditions: MCF7, 48 h, read-out: GI
# [18] = Growth inhibition of human COLO205 cells at 10 uM after 48 hrs by SRB assay relative to control; assay type: functional; conditions: COLO 205, 48 h, read-out: GI
# [19] = Growth inhibition of human SF268 cells at 10 uM after 48 hrs by SRB assay relative to control; assay type: functional; conditions: SF-268, 48 h, read-out: GI
# A498 = assay: Growth inhibition of human A498 cells at 10 uM after 48 hrs by SRB assay relative to control; assay type: functional; conditions: A498, 48 h, read-out: GI
# ACHN = assay: Growth inhibition of human ACHN cells at 10 uM after 48 hrs by SRB assay relative to control; assay type: functional; conditions: read-out: GI
# [20] = Growth inhibition of human HOP92 cells at 10 uM after 48 hrs by SRB assay relative to control; assay type: functional; conditions: HOP-92, 48 h, read-out: GI
# [21] = Growth inhibition of human TK10 cells at 10 uM after 48 hrs by SRB assay relative to control; assay type: functional; conditions: TK-10, 48 h, read-out: GI
# SN12C = assay: Growth inhibition of human SN12C cells at 10 uM after 48 hrs by SRB assay relative to control; assay type: functional; conditions: read-out: GI
# [22] = Growth inhibition of human UACC257 cells at 10 uM after 48 hrs by SRB assay relative to control; assay type: functional; conditions: UACC-257, 48 h, read-out: GI
# [23] = Growth inhibition of human SF295 cells at 10 uM after 48 hrs by SRB assay relative to control; assay type: functional; conditions: SF-295, 48 h, read-out: GI
# Malme-3M = assay: Growth inhibition of human MALME-3M cells at 10 uM after 48 hrs by SRB assay relative to control; assay type: functional; conditions: read-out: GI
# NCI-H23 = assay: Growth inhibition of human NCI-H23 cells at 10 uM after 48 hrs by SRB assay relative to control; assay type: functional; conditions: NCI-H23, 48 h, read-out: GI
# [24] = Growth inhibition of human OVCAR5 cells at 10 uM after 48 hrs by SRB assay relative to control; assay type: functional; conditions: OVCAR-5, 48 h, read-out: GI
# K562 = assay: Growth inhibition of human K562 cells at 10 uM after 48 hrs by SRB assay relative to control; assay type: functional; conditions: K562, 48 h, read-out: GI
# A549 = assay: Growth inhibition of human A549 cells at 10 uM after 48 hrs by SRB assay relative to control; assay type: functional; conditions: A549, 48 h, read-out: GI
# [25] = Growth inhibition of human HCT15 cells at 10 uM after 48 hrs by SRB assay relative to control; assay type: functional; conditions: HCT-15, 48 h, read-out: GI
# M14 = assay: Growth inhibition of human M14 cells at 10 uM after 48 hrs by SRB assay relative to control; assay type: functional; conditions: M14, 48 h, read-out: GI
# MDA-MB-231 = assay: Growth inhibition of human MDA-MB-231 cells at 10 uM after 48 hrs by SRB assay relative to control; assay type: functional; conditions: MDA-MB-231, 48 h, read-out: GI
# Ovis aries = species on record: Ovis aries; assay: Inhibition of sheep brain tubulin polymerization at 100 uM by DAPI staining-based fluorimetric method
# T47D = assay: Growth inhibition of human T47D cells at 10 uM after 48 hrs by SRB assay relative to control; assay type: functional; conditions: read-out: GI
structure (smiles),measurement,setting,value
COc1ccc(C(=O)c2ccc3c(c2)Sc2ccccc2N3C)cc1F,inhibition of growth at 10 µM,[1],27%
same,inhibition of growth at 10 µM,[2],1%
same,inhibition of growth at 10 µM,[3],11%
same,inhibition of growth at 10 µM,[4],5%
same,inhibition of growth at 10 µM,[5],17%
same,inhibition of growth at 10 µM,[6],32%
same,inhibition of growth at 10 µM,[7],7%
same,inhibition of growth at 10 µM,[8],10%
same,inhibition of growth at 10 µM,[9],7%
same,inhibition of growth at 10 µM,[10],0%
same,inhibition of growth at 10 µM,KM12,30%
same,inhibition of growth at 10 µM,[11],22%
same,inhibition of growth at 10 µM,[12],5%
same,inhibition of growth at 10 µM,SK-MEL-2,17%
same,inhibition of growth at 10 µM,[13],26%
same,inhibition of growth at 10 µM,[14],17%
same,inhibition of growth at 10 µM,[15],58%
same,inhibition of growth at 10 µM,[16],15%
same,inhibition of growth at 10 µM,[17],0%
same,inhibition of growth at 10 µM,U-251,18%
same,inhibition of growth at 10 µM,MCF7,37%
same,inhibition of growth at 10 µM,[18],34%
same,inhibition of growth at 10 µM,[19],2%
same,inhibition of growth at 10 µM,A498,45%
same,inhibition of growth at 10 µM,ACHN,0%
same,inhibition of growth at 10 µM,[20],17%
same,inhibition of growth at 10 µM,[21],8%
same,inhibition of growth at 10 µM,SN12C,13%
same,inhibition of growth at 10 µM,[22],8%
same,inhibition of growth at 10 µM,[23],16%
same,inhibition of growth at 10 µM,Malme-3M,24%
same,inhibition of growth at 10 µM,NCI-H23,13%
same,inhibition of growth at 10 µM,[24],12%
same,inhibition of growth at 10 µM,K562,61%
same,inhibition of growth at 10 µM,A549,44%
same,inhibition of growth at 10 µM,[25],36%
COc1ccc(C(=O)N2c3ccccc3Sc3ccccc32)c(F)c1,inhibition of growth at 10 µM,[1],85%
same,inhibition of growth at 10 µM,[2],100%
same,inhibition of growth at 10 µM,[3],100%
same,inhibition of growth at 10 µM,[4],81%
same,inhibition of growth at 10 µM,[5],80%
same,inhibition of growth at 10 µM,[6],98%
same,inhibition of growth at 10 µM,[7],45%
same,inhibition of growth at 10 µM,[8],51%
same,inhibition of growth at 10 µM,[9],84%
same,inhibition of growth at 10 µM,[10],85%
same,inhibition of growth at 10 µM,KM12,77%
same,inhibition of growth at 10 µM,[11],55%
same,inhibition of growth at 10 µM,[12],70%
same,inhibition of growth at 10 µM,M14,98%
same,inhibition of growth at 10 µM,[13],77%
same,inhibition of growth at 10 µM,[14],73%
same,inhibition of growth at 10 µM,MDA-MB-231,47%
same,inhibition of growth at 10 µM,[15],77%
same,inhibition of growth at 10 µM,[16],64%
same,inhibition of growth at 10 µM,[17],95%
same,inhibition of growth at 10 µM,U-251,66%
same,inhibition of growth at 10 µM,MCF7,76%
same,inhibition of growth at 10 µM,[18],92%
same,inhibition of growth at 10 µM,[19],47%
same,inhibition,Ovis aries,75%
same,inhibition of growth at 10 µM,A498,98%
same,inhibition of growth at 10 µM,ACHN,52%
same,inhibition of growth at 10 µM,T47D,60%
same,inhibition of growth at 10 µM,[20],58%
same,inhibition of growth at 10 µM,[21],55%
same,inhibition of growth at 10 µM,SN12C,39%
same,inhibition of growth at 10 µM,[22],33%
same,inhibition of growth at 10 µM,[23],91%
same,inhibition of growth at 10 µM,Malme-3M,53%
same,inhibition of growth at 10 µM,NCI-H23,68%
same,inhibition of growth at 10 µM,[24],38%
same,inhibition of growth at 10 µM,K562,87%
same,inhibition of growth at 10 µM,A549,73%
same,inhibition of growth at 10 µM,[25],73%

# From ChEMBL document CHEMBL3792297, “Studies on phenothiazines: New microtubule-interacting compounds with phenothiazine A-ring as potent antineoplastic agents” (Bioorg Med Chem, 2016)
